This note sets out measurements from paper PMC3198391, “Mechanism of Disruption of the Amt-GlnK Complex by PII-Mediated Sensing of 2-Oxoglutarate” (PLoS ONE, 2011).

For assay [1], the target named is T1, Af-GlnK3 (Archaeoglobus fulgidus, UniProt O28524).
T1 construct: full length, pET21a, C-terminal pentahistidine tag kept, three Ala (113-115) inserted in linker before tag; E. coli BL21(DE3) Rosetta; 13 kDa monomer, homotrimer; forward primer encodes MKMVVAVI, reverse end TGDEEV; sites between monomers
Description: isothermal titration calorimetry, one-site model. Type of assay: binding. Particulars: read-out: Dissociation constantKD. The source says:
(§1) isothermal titration calorimetry, one-site model on Af-GlnK3

For assay [2], the target named is T2, Af-GlnK3 (Archaeoglobus fulgidus, UniProt O28524, F97I).
T2 construct: full length, pET21a, C-terminal pentahistidine tag kept, three Ala (113-115) inserted in linker before tag; E. coli BL21(DE3) Rosetta; 13 kDa monomer, homotrimer; forward primer encodes MKMVVAVI, reverse end TGDEEV; sites between monomers
Description: isothermal titration calorimetry, one-site model. It is filed as binding. The note with it: read-out: Dissociation constantKD.
From the text: as §1
(ITC needs no label: the signal is the heat of the interaction.)

The target of assay [3] is T3, Af-GlnK3 (Archaeoglobus fulgidus, UniProt O28524, F97P).
T3 construct: full length, pET21a, C-terminal pentahistidine tag kept, three Ala (113-115) inserted in linker before tag; E. coli BL21(DE3) Rosetta; 13 kDa monomer, homotrimer; forward primer encodes MKMVVAVI, reverse end TGDEEV; sites between monomers
Nature of the assay: isothermal titration calorimetry, one-site model. It is filed as binding. The note with it: read-out: Dissociation constantKD.
From the text: as §1

Assay [4] concerns the target Af-GlnK3 (Archaeoglobus fulgidus) (UniProt O28524). Nature of the assay: SEC; gel filtration during purification; 50 mM Tris-HCl pH 8.0, 300 mM NaCl. (In general: SEC sorts molecules by how far they enter the pores of the column.)
Assay [5] shares this target. Description: crystal structure; vapour diffusion, sitting drop, trimer fraction from size exclusion chromatography; crystals as isolated, soaked with MgATP or MgADP, or co-crystallised with MgATP and 2-OG.

Sequence of Af-GlnK3 (from UniProt O28524 1-120) (natural protein) (O28524 whole entry): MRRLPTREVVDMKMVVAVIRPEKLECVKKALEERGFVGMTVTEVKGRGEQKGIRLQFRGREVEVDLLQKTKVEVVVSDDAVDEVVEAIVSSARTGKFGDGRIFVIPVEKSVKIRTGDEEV
T2 sequence (O28524 12-120 F97I): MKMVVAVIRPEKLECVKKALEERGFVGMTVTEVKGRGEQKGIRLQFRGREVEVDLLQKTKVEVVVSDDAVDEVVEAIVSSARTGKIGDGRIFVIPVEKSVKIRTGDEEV
T1 sequence (O28524 12-120): as the sequence (O28524 12-120 F97I) above, with I86F counted along it
T3 sequence (O28524 12-120 F97P): as the sequence (O28524 12-120 F97I) above, with I86P counted along it

Turning to `Nc1ncnc2c1ncn2[C@@H]1O[C@H](COP(=O)(O)OP(=O)(O)O)[C@@H](O)[C@H]1O` [ADP], the Kd on Af-GlnK3 [1] turned out to be 568 µM; at Af-GlnK3 [2], 373 µM; on Af-GlnK3 [3] it was 102 µM.
The matching figures for `Nc1ncnc2c1ncn2[C@@H]1O[C@H](COP(=O)(O)OP(=O)(O)OP(=O)(O)O)[C@@H](O)[C@H]1O` [ATP]: 338 µM, 149 µM and 128 µM.
On to “Af-GlnK3 (from UniProt O28524 1-120) (natural protein)”, for which the stoichiometry N in assay [4] and in assay [5] was 3 throughout.
